We go through eight compounds from article PMC11643677, “In Silico Prediction of Alkaline Phosphatase Interaction with the Natural Inhibitory 5-Azaindoles Guitarrin C and D” (Molecules, 2024).

Test [1] deals with T1, alkaline phosphatase CmAP (Cobetia amphilecti, UniProt Q1W622). Details: method as in PMID 31181923. To be noted: cited from earlier work; for inhibitory activity against CmAP: previous study ref 33; for affinity relative to the chelator EDTA: CmAP, higher affinity than EDTA ref 33.
The next test relates to ALP. The arrangement: method as in PMID 25694083, PMID 37274413, PMID 36362051. To be noted: standard inhibitory ligands of ALP ref 17-19; cited from earlier work.
In test [2] the target is T2, calf intestinal alkaline phosphatase (CIAP) (Bos taurus, UniProt P19111).
T2 construct: purchased Invitrogen, Thermo Fisher Scientific 18009019
Kind of test: Inhibitory activity assay on calf intestinal alkaline phosphatase (pNPP hydrolysis). To be noted: for IC50: 2 mM pNPP, 0.1 M Tris-HCl pH 10.0, 0.2 M KCl, 37 °C, 60 min preincubation, mean of three ± SD; for Ki: by the Cheng–Prusoff formula Ki = IC50/(1 + [S]/Km). The format is biochemical. As to the method: (§1) The enzymatic activity was evaluated through the addition of 5 μL of the protein solution sample to a solution of 495 μL buffer, comprising 0.1 M Tris-HCl (pH 10.0), 0.2 M KCl, and 2 mM pNPP. The reaction mixture was incubated at 37 °C for a period of 30 min. To halt the reaction, 2 mL of chilled 0.5 M NaOH was introduced. The quantity of p-nitrophenol (pNP) produced was quantified spectrophotometrically at a wavelength of 400 nm, with the control sample, which lacked the enzyme, serving as a reference point. The specific activity was calculated using the following formula: (2.5 × OD400)/(18.6 × 0.005 × t × C), where OD400 is the optical density at a wavelength of 400 nm, 2.5 is the volume of the reaction mixture in mL, 18.6 is the extinction coefficient of pNP (M^−1/cm^−1), t is the incubation time at 37 °C in minutes, 0.005 is the sample volume in mL, and C is the protein concentration in the sample (mg/mL). The quantity of enzyme required for the generation of 1 µM pNP within a one-minute period was established as the unit of activity.
(§2) The effect of the natural inhibitors guitarrins C and D [33] on the activity of the alkaline phosphatases CmAP from C. amphilecti KMM 296 and calf intestinal alkaline phosphatase (CIAP, Invitrogen™ 18009019, Thermo Fisher Scientific, Waltham, MA, USA) was investigated in a buffer containing 0.1 M tris-HCl (pH 10.0) with 0.2 KCl. […] The activity of ALPs was determined using the standard method described above. CmAP (3.22 mg/mL, 2929 U/mg) and CIAP (0.99 mg/mL, 647 U/mg) were dissolved in 50 mM tris-HCl (pH 8.0) buffer with 2 mM MgCl2. Results were presented as the percentage of inhibition relative to control activity. The IC50 for each compound tested was defined as the concentration of compound that inhibited the enzyme activity by 50%. IC50 values are given as the mean of three experiments and standard deviation.
(§3) The kinetic parameters (Km and Vmax) were determined for alkaline phosphatases CmAP and CIAP. The mean Km values and standard deviations were presented. […] The inhibition constant, Ki, was determined using the Cheng–Prusoff formula [51]. The binding activity of the inhibitor to the reactive substrate (Ki) can be calculated using the following formula: Ki = IC50/(1 + [S]/Km), where IC50 is the functional activity of the inhibitor, [S] is the concentration of the reactive substrate, and KM is the Michaelis constant. The results were presented in the Origin 7.0 software.

Test [3] concerns the target T1, alkaline phosphatase CmAP. Kind of test: Inhibitory activity assay and kinetics on alkaline phosphatase CmAP (pNPP hydrolysis). Type of test: biochemical, Cobetia amphilecti KMM 296. The settings on record: for IC50: 2 mM pNPP, 0.1 M Tris-HCl pH 10.0, 0.2 M KCl, 37 °C, 60 min preincubation, mean of three ± SD; for residual activity: at maximum inhibition; for Ki: by the Cheng–Prusoff formula Ki = IC50/(1 + [S]/Km); for type of inhibition: pNPP substrate; for Vmax in the presence of inhibitor: pNPP, guitarrin C 52.0 µM, guitarrin D 96.0 µM, 60 min preincubation at 23 °C, without inhibitor 5.98 ± 0.03. As to the method:
as §1, §2, §3

Test [4] has as its target Vibrio splendidus alkaline phosphatase (VAP). The arrangement: method as in PMID 33102813. The settings on record: cited from earlier work.

Entries after “also recorded” stand apart in the source; their conditions may differ.

T2 sequence (P19111 20-506 limits assumed): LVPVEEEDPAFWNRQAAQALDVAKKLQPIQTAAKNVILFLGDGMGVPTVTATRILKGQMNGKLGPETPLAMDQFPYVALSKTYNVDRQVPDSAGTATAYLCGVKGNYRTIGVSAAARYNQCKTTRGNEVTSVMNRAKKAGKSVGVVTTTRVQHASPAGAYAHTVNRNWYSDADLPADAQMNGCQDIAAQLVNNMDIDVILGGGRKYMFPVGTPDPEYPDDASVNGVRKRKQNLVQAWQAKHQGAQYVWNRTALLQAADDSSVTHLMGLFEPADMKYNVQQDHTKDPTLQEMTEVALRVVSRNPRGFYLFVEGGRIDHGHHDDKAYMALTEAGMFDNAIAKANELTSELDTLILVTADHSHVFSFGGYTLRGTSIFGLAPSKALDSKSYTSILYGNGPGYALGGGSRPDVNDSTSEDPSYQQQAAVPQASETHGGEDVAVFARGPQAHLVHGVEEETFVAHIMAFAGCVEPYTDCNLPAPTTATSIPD
T1 sequence (Q1W622 entry or part of it): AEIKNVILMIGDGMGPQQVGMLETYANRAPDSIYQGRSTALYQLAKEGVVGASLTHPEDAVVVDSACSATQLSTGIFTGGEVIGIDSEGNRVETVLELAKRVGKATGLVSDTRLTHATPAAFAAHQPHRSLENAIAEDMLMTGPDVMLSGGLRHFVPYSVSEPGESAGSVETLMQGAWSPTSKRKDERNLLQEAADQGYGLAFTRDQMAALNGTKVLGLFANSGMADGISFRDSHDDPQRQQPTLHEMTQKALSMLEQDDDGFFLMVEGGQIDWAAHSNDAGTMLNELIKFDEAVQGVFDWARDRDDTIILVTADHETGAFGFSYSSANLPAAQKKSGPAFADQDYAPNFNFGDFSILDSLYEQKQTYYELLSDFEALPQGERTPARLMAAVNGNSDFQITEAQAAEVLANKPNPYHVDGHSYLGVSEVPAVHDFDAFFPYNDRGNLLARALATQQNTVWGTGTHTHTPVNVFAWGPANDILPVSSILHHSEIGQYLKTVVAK

With guitarrin E, the “inhibitory activity against CmAP” value in test [1] is listed as “no inhibitory activity; also recorded: non-inhibitory”.
For `c1ccc([C@H]2CN3CCSC3=N2)cc1` [levamisole], in the test with ALP, the IC50 is 19 µM.
Regarding `O=C(O)c1nc(CO)c2cc[nH]c2c1O` [guitarrin D], in test [2], the “difference in inhibitory activity compared to guitarrin C” value turned out to be 1.2 fold, the “maximum inhibition of activity” value amounted to 57%, the IC50 came out at 230 ± 1.6 µM and the Ki was 45 ± 0.2 µM. Moreover, in test [3], the “maximum inhibition of activity” value stood at 85%, the IC50 came to 110 ± 0.8 µM, the residual activity was 15% and the Ki came out at 20.56 ± 0.06 µM. In test [3], the type of inhibition entry is listed as “mixed type of inhibition” and the “Vmax in the presence of inhibitor” value turned out to be 3.98 ± 0.02 U mL^−1. Besides, the “decrease in Vmax” value in test [3] (with versus without inhibitor) is “more than 2 fold”. Besides, in test [1], the “affinity relative to the chelator EDTA” value was 100 fold and the “inhibitory activity against CmAP” value is on record as “pronounced inhibitory activity”.
On to `NC1CCCCC1` [cyclohexylamine], for which, in test [4] (VAP ref 27), the IC50 was 35700 µM, the “Michaelis–Menten constant in the presence of inhibitor (unchanging)” value was 195 ± 4 µM and the type of inhibition result is listed as “non-competitive”. In addition, the Ki in test [4] (VAP, Ki equal to IC50 ref 27) was 35700 µM.
For the compound `O=C(O)c1cc2[nH]ccc2c(CO)n1` [guitarrin C], in test [2], the “maximum inhibition of activity” value was found to be 57%, the IC50 is 195 ± 2.2 µM and the Ki is 38 ± 0.1 µM. Moreover, the type of inhibition result in test [2] (pNPP substrate) is on record as “non-competitive”. Moreover, in test [3], the “maximum inhibition of activity” value is listed as 85%, the IC50 came to 8.5 ± 0.08 µM, the residual activity is on record as 15% and the Ki was found to be 1.58 ± 0.04 µM. In test [3], the type of inhibition entry is given as “non-competitive” and the “Vmax in the presence of inhibitor” value is listed as 2.62 ± 0.02 U mL^−1. In test [3] (more active), the “activity relative to guitarrin D” value was determined as 10 fold. For the same compound, in test [1], the “affinity relative to the chelator EDTA” value is 1000 fold and the “inhibitory activity against CmAP” value was “pronounced inhibitory activity”.
Regarding `N[C@@H](Cc1ccccc1)C(=O)O` [L-phenylalanine], the IC50 with ALP was 80 µM.
Take `Cn1c(=O)c2[nH]cnc2n(C)c1=O` [theophylline]: in the test on ALP, the IC50 was 47 µM and the Ki was 91 µM.
On to guitarrin A, for which the “inhibitory activity against CmAP” value in test [1] is reported as “no inhibitory activity; also recorded: non-inhibitory”.
